# According to US20210030654A1, “ANTIOXIDANT COMPLEX AND COMPOSITION FOR FORMING SAME” (priority 2018, published 2021):
# Experiments:
# [1] = Solubility; format: physicochemical; settings: powder introduced into physiological saline
# Text: The simple mixture is not preferable for a preparation method of the antioxidant complex according to the inventive concept.
# [2] = test system: Human red blood cells; test: CAP-e bioassay (cellular antioxidant protection assay of red blood cells); format: cell-based; settings: AAPH-induced oxidative damage, FIGS. 3-5
# Protocol: Cellular antioxidant protection (CAP-e) assay of red blood cells was used to evaluate the capacity of antioxidant complexes to protect cells from oxidative stress after the antioxidant complexes enter the cells.
# Human red blood cells were treated for 20 minutes using the antioxidant complex serially diluted in physiological saline. During this incubation period, the antioxidant complexes that may pass through a cell membrane may enter the cells. After exposure of the red blood cells to the antioxidant complex which was tested twice for each dose of the antioxidant complex, the red blood cells were washed twice with PBS to remove the antioxidant complex that was not absorbed by the cells.
# The red blood cells were loaded with an indicator dye DCF-DA that becomes fluorescent when oxidized, and then a peroxyl free radical generator AAPH was added thereto to induce oxidative damage to the cells. A relative fluorescence intensity of each cell culture was measured at 488 nanometers using a Tecan Spectrafluor plate reader (Tecan, Männedorf, Switzerland). A reference for oxidation at the cellular level was defined based on a low fluorescence intensity of untreated control cells (cells treated with PBS but not treated with a test product or AAPH). A positive control for cellular oxidative damage was defined as red blood cells exposed to AAPH alone under the absence of the antioxidant complex. […]
smiles,measurement,setting,value
"O=C1c2c(O)cc(O)cc2O[C@H](c2ccc(O)c(O)c2)[C@H]1O [dihydroquercetin powder, dihydroquercetin]",solubility in physiological saline,[1],almost completely insoluble
same,intracellular antioxidant capacity / cell protective capacity in CAP-e analysis,[2],did not exhibit the intracellular antioxidant capacity
